{"source": "patent US5801165A", "about": "“Antiinflammatory, immunosuppressive and antialleric 16, 17-alkylidioxy-steroids” (Rhone-Poulenc Rorer Limited, priority 1992, dated 1998)", "key": {"[1]": {"test_system": "TNF-α release from human peripheral blood monocytes", "experiment": "Inhibition of tumour necrosis factor (TNF-α) release from human peripheral blood monocytes (lipopolysaccharide challenge)", "format": "cell-based", "conditions": "Monocyte, 18 hours incubation with steroid, then 10 ng/ml lipopolysaccharide for 4 hours, read-out: IC50 (steroid concentration reducing TNF-α release by 50%)", "description": "INHIBITION OF TUMOUR NECROSIS FACTOR (TNF-α) RELEASE FROM HUMAN PERIPHERAL BLOOD MONOCYTES Monocytes are obtained from blood samples taken from normal human donors. The leukocyte population is washed, applied to a discontinuous metrizamide gradient, and fractionated by centrifugation. The monocyte-enriched interface is aspirated, the cells washed and total and differential counts performed to determine the number of monocytes. Cells are allowed to adhere to 96-well plates for 1 to 2 hours, and thereafter incubated (8×10^5 monocytes/well) with the steroid for 18 hours (37° C. in 5% CO2). Cells are challenged with 10 ng/ml lipopolysaccharide for 4 hours and TNF-αis assayed by use of an enzyme-linked immunosorbent assay. TNF-α quantification is performed with goat anti-human TNF-α being used as the coating antibody, rabbit anti-human TNF-α as the second antibody, and goat anti-rabbit IgG horseradish peroxidase as the detection antibody. The IC50 is the steroid concentration reducing TNF-α release by 50%."}, "[2]": {"test_system": "tyrosine aminotransferase activity, rat liver H4IIE cells", "experiment": "Induction of tyrosine aminotransferase activity in rat liver H4IIE cells", "format": "cell-based", "conditions": "overnight incubation, maximum of dexamethasone as reference, method defines ED50 = 50% of the maximum achievable increase, read-out: IC50 (induction of tyrosine aminotransferase activity)", "description": "INDUCTION OF TYROSINE AMINOTRANSFERASE ACTIVITY\nRat liver H4IIE cells are cultured for 4 days until the cells are confluent. The medium is replaced by fresh medium, containing steroid under test (0-100 nM) which is added to triplicate wells. After overnight incubation as above, the medium is removed and the cells are lysed and the extract is equilibrated at 37° C. with α-ketoglutarate and pyridoxal phosphate in phosphate buffer, pH 7.3, in a final volume of 1 ml. Tyrosine aminotransferase activity is initiated by adding tyrosine and incubating at 37° C. for 10 minutes. The reaction is stopped by adding aqueous sodium hydroxide solution (10M). The ultra-violet absorbance of the para-hydroxybenzaldehyde is measured by a plate reader at 340 nm. The maximal absorbance change achieved with the standard (dexamethasone) is used as a reference. The absorbance change for each concentration of steroid under test is calculated as a fraction of the maximal absorption achievable and plotted against steroid concentration. The ED50 is determined as the concentration causing an increase in tyrosine aminotransferase activity of 50% of the maximum achievable. IC50 =0.3 nM"}, "[3]": {"test_system": "Sephadex-induced lung oedema in rats", "experiment": "animal or person", "format": "in vivo, male rats (Sprague-Dawley strain)", "description": "INHIBITION OF RAT LUNG OEDEMA IN-VIVO:\nTest compounds are suspended in 1% carboxymethyl-cellulose/0.2% Tween 80 at double the required strength and sonicated to form a suspension. This is administered intra-tracheally (i.t.) to male rats (Sprague-Dawley strain, 6 in each group, each weighing about 350 g) at 0 hours and 24 hours, with the first dose being co-administered with saline and the second with Sephadex G200 [cross-linked dextran] (10 mg/ml) giving a final Sephadex concentration of 5 mg/ml. I.t. dosing is carried out under halothane anaesthesia (4% in oxygen, at 4 litres/minute for 3 minutes). At 48 hours, the rats are killed, final body weight is recorded, and the lungs and thymus are removed and weighed. The doses reducing the Sephadex-induced oedema and the thymus weight by 30% (ED30) are calculated. Airway selectivity is defined as the ratio of thymus involution (ED30) and inhibition of lung oedema (ED30)."}, "[4]": {"test_system": "PMA-induced mouse ear oedema", "experiment": "Inhibition of PMA-induced mouse ear oedema in-vivo", "set-up": "species or system female mice (CD1 strain)", "conditions": "epicutaneous, 18 hours before PMA 1.25 μg/ear; killed 4 hours later", "description": "INHIBITION OF MOUSE EAR OEDEMA IN-VIVO (i) Steroids are dissolved in acetone and administered epicutaneously to the ventral and dorsal surfaces of the right ear pinna of female mice (CD1 strain, 5 in each group, each weighing about 20 g). 18 Hours later, phorbol myristate acetate (PMA, 1.25 μg/ear) in acetone is applied epicutaneously to the right ear. The mice are killed 4 hours later, and a 5 mm disc is punched out of each ear and weighed. The dose reducing PMA-induced oedema by 50% (ED50) is determined from linear regression."}, "[5]": {"test_system": "antigen-induced mouse ear oedema", "experiment": "Inhibition of antigen-induced mouse ear oedema in-vivo (ovalbumin sensitised mice)", "conditions": "topical, 18 hours before intradermal antigen challenge; killed 1 hour later", "description": "INHIBITION OF MOUSE EAR OEDEMA IN-VIVO (ii) Ovalbumin sensitised mice are challenged with antigen injected into the right ear intradermally under 4% halothane anaesthesia (4% in oxygen, 4 litres/minute for 2 minutes) 18 hours after topical treatment with the steroids [as above in (i)]. The mice are killed 1 hour later, and a 5 mm disc is punched out of each ear, and weighed. The dose reducing the oedema by 50% (ED50) is determined as above."}}, "data": [{"molecule": "CCC[C@@H]1O[C@@H]2C[C@H]3[C@@H]4C[C@H](F)C5=CC(=O)CC[C@]5(C)[C@@]4(F)[C@@H](O)C[C@]3(C)[C@]2(SC)O1", "values": [{"measurement": "IC50", "setting": "[1]", "result": 0.25, "unit": "nM"}, {"measurement": "ED50 (induction of tyrosine aminotransferase activity)", "setting": "[2]", "result": 0.3, "unit": "nM"}, {"measurement": "ED30", "setting": "[3]; Rattus norvegicus, inhaled or nasal, i.t. at 0 and 24 hours, rats killed at 48 hours, dose reducing Sephadex-induced oedema by 30%", "result": 3, "unit": "µg/kg"}, {"measurement": "Thymus involution: ED30", "setting": "[3]; rat, in vivo, 2880 min", "result": 2200, "unit": "µg/kg"}, {"measurement": "Airway selectivity (ratio of thymus involution ED30 and inhibition of lung oedema ED30)", "setting": "[3]; ratio ED30 thymus involution / ED30 lung oedema, i.t., rat", "result": 733}, {"measurement": "Inhibition of PMA-induced mouse ear oedema: ED5O", "setting": "[4]", "result": 0.0082, "unit": "μg/ear"}, {"measurement": "Inhibition of antigen-induced mouse ear oedema: ED50", "setting": "[5]", "result": 0.026, "unit": "μg/ear"}]}]}
